Biological target: human O-GlcNAcase (Homo sapiens (Human), UniProt O60502)
Assay: Assay for determination of KI values for inhibition of O-GlcNAcase activity (fluorescence-based hOGA)
Assay type: biochemical
Conditions: purified human O-GlcNAcase, 4-Methylumbelliferyl N-acetyl-β-D-glucosaminide substrate, pH 7.0, Cheng-Prusoff
Procedure: Enzymatic reactions were carried out in a reaction containing 50 mM NaH2PO4, 100 mM NaCl and 0.1% BSA (pH 7.0) using 2 mM 4-Methylumbelliferyl N-acetyl-β-D-glucosaminide dihydrate (Sigma M2133) dissolved in ddH2O, as a substrate. The amount of purified human O-GlcNAcase enzyme used in the reaction was 0.7 nM. Test compound of varying concentrations was added to the enzyme prior to initiation of the reaction. The reaction was performed at room temperature in a 96-well plate and was initiated with the addition of substrate. The production of fluorescent product was measured every 60 sec for 45 min with a Tecan Infinite M200 plate-reader with excitation at 355 nm and emission detected at […], with 4-Methylumbelliferone (Sigma M1381) used to produce a standard curve. The slope of product production was determined for each concentration of compound tested and plotted, using standard curve fitting algorithms for sigmoidal dose response curves. The values for a four parameter logistic curve fit of the data were determined.
KI values were determined using the Cheng-Prusoff equation; the Km of O-GlcNAcase for substrate was 0.2 mM.

Chain of human O-GlcNAcase (O60502 whole entry): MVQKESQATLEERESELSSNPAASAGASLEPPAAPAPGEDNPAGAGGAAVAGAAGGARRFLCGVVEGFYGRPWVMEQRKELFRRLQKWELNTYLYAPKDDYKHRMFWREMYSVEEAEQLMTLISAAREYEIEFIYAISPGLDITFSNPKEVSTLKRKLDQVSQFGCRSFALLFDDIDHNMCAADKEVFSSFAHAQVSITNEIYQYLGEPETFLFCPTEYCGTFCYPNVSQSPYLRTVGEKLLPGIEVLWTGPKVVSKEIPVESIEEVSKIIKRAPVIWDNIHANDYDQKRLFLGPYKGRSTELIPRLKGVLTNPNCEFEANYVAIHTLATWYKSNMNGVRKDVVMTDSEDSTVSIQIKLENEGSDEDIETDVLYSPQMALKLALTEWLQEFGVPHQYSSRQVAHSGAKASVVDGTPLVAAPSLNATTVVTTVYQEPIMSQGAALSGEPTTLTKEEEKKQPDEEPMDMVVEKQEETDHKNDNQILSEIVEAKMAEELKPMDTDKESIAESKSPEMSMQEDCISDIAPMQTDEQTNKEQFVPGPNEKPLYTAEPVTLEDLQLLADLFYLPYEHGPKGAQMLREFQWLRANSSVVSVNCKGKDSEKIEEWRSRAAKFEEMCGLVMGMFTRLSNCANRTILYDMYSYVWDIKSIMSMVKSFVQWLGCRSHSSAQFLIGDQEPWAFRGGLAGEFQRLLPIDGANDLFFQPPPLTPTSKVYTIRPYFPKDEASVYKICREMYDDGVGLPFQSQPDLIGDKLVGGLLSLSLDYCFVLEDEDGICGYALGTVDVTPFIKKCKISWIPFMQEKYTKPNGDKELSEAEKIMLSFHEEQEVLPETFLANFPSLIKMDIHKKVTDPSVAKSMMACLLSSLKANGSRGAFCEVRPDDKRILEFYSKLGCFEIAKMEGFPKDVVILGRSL

Ki: 2.58 µM
SMILES: CC(=O)N[C@H]1CN(CCCCc2ccccc2)[C@H](CO)[C@@H](O)[C@@H]1O [Example 1, N-((3S,4R,5R,6R)-4,5-dihydroxy-6-(hydroxymethyl)-1-(4-phenylbutyl)piperidin-3-yl)acetamide]

Source: patent publication US9522883B2, “Glycosidase inhibitors and uses thereof” (Alectos Therapeutics Inc., priority 2012, dated 2016)
